Reference: patent US20210369853A1, “TARGETED PROTEASE DEGRADATION PLATFORM” (EUBULUS BIOTHERAPEUTICS INC., priority 2018, published 2021)

system: Human Colon Cancer HCT-116; assay: Cell proliferation experiment (Alarm blue, 72 h, EC50); format: cell-based; conditions: Homo sapiens, HCT-116; HCT116 cells
Procedure, shortened: (§1)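 Growth inhibition over 72 h. Cells were cultured in standard media and passaged at least twice before plating, then treated with a 5-fold compound gradient. EC50 came from Alamar blue fluorescence.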

Compound | EC50 [nM]
O=C1CCC(N2Cc3c(NC(=O)CCCNC(=O)c4ccc(Nc5ncc6c(n5)-c5ccc(Cl)cc5C(c5c(F)cccc5F)=NC6)cc4)cccc3C2=O)C(=O)N1 (stereo not shown) [UB-180501] | 100 to 1000
O=C1CCC(N2Cc3c(NC(=O)COCCCNC(=O)c4ccc(Nc5ncc6c(n5)-c5ccc(Cl)cc5C(c5c(F)cccc5F)=NC6)cc4)cccc3C2=O)C(=O)N1 (stereo not shown) [UB-180502] | 100 to 1000
O=C1CCC(N2Cc3c(NC(=O)COCCNC(=O)c4ccc(Nc5ncc6c(n5)-c5ccc(Cl)cc5C(c5c(F)cccc5F)=NC6)cc4)cccc3C2=O)C(=O)N1 (stereo not shown) [UB-180509] | > 1000
O=C1CCC(N2Cc3c(NC(=O)CCOCCOCCOCCOCCNC(=O)c4ccc(Nc5ncc6c(n5)-c5ccc(Cl)cc5C(c5c(F)cccc5F)=NC6)cc4)cccc3C2=O)C(=O)N1 (stereo not shown) [UB-180530] | > 1000
O=C1CCC(N2Cc3c(NC(=O)COCCOCCOCCOCCNC(=O)c4ccc(Nc5ncc6c(n5)-c5ccc(Cl)cc5C(c5c(F)cccc5F)=NC6)cc4)cccc3C2=O)C(=O)N1 (stereo not shown) [UB-180534] | > 1000

Results, then the compound that gave them:

EC50 [nM] | Compound
100 to 1000 | O=C1CCC(N2Cc3c(NC(=O)COCCCCNC(=O)c4ccc(Nc5ncc6c(n5)-c5ccc(Cl)cc5C(c5c(F)cccc5F)=NC6)cc4)cccc3C2=O)C(=O)N1 (stereo not shown) [UB-180503]
100 to 1000 | O=C1CCC(N2Cc3c(NC(=O)CCOCCOCCNC(=O)c4ccc(Nc5ncc6c(n5)-c5ccc(Cl)cc5C(c5c(F)cccc5F)=NC6)cc4)cccc3C2=O)C(=O)N1 (stereo not shown) [UB-180504]
> 1000 | O=C1CCC(N2Cc3c(NC(=O)COCCOCCOCCNC(=O)c4ccc(Nc5ncc6c(n5)-c5ccc(Cl)cc5C(c5c(F)cccc5F)=NC6)cc4)cccc3C2=O)C(=O)N1 (stereo not shown) [UB-180520]
> 1000 | Cc1sc2c(c1C)C(c1ccc(Cl)cc1)=N[C@@H](CC(=O)NCCOCCOCCOCCNCCC(=O)Nc1cccc3c1CN(C1CCC(=O)NC1=O)C3=O)c1nnc(C)n1-2 (stereo partly shown) [UB-180635]
> 1000 | Cc1sc2c(c1C)C(c1ccc(Cl)cc1)=N[C@@H](CC(=O)NCCOCCOCCOCCNCCCC(=O)Nc1cccc3c1CN(C1CCC(=O)NC1=O)C3=O)c1nnc(C)n1-2 (stereo partly shown) [UB-180648]

system: Human Monocytic Leukemia MV4-11; assay: as above; format: cell-based; conditions: Homo sapiens, MV4-11, MV4;11 cells
Procedure, shortened: as §1

Compound | EC50 [nM]
O=C1CCC(N2Cc3c(NC(=O)CCCNC(=O)c4ccc(Nc5ncc6c(n5)-c5ccc(Cl)cc5C(c5c(F)cccc5F)=NC6)cc4)cccc3C2=O)C(=O)N1 (stereo not shown) [UB-180501] | > 1000
O=C1CCC(N2Cc3c(NC(=O)COCCCNC(=O)c4ccc(Nc5ncc6c(n5)-c5ccc(Cl)cc5C(c5c(F)cccc5F)=NC6)cc4)cccc3C2=O)C(=O)N1 (stereo not shown) [UB-180502] | 10 to 100
O=C1CCC(N2Cc3c(NC(=O)COCCNC(=O)c4ccc(Nc5ncc6c(n5)-c5ccc(Cl)cc5C(c5c(F)cccc5F)=NC6)cc4)cccc3C2=O)C(=O)N1 (stereo not shown) [UB-180509] | > 1000
O=C1CCC(N2Cc3c(NC(=O)CCOCCOCCOCCOCCNC(=O)c4ccc(Nc5ncc6c(n5)-c5ccc(Cl)cc5C(c5c(F)cccc5F)=NC6)cc4)cccc3C2=O)C(=O)N1 (stereo not shown) [UB-180530] | 10 to 100
O=C1CCC(N2Cc3c(NC(=O)COCCOCCOCCOCCNC(=O)c4ccc(Nc5ncc6c(n5)-c5ccc(Cl)cc5C(c5c(F)cccc5F)=NC6)cc4)cccc3C2=O)C(=O)N1 (stereo not shown) [UB-180534] | 10 to 100
Cc1ncsc1-c1ccc(CNC(=O)[C@@H]2C[C@@H](O)CN2C(=O)[C@@H](NC(=O)CCNCCn2cc(COCCOCCNC(=O)c3ccc(Nc4ncc5c(n4)-c4ccc(Cl)cc4C(c4c(F)cccc4F)=NC5)cc3)nn2)C(C)(C)C)cc1 [UB-180786] | > 1000
Cc1ncsc1-c1ccc(CNC(=O)[C@@H]2C[C@@H](O)CN2C(=O)[C@@H](NC(=O)CCNCCn2cc(COCCOCCOCCNC(=O)[C@]3(Cc4cccc(Nc5nccs5)n4)CC[C@@H](Oc4cccc(Cl)c4F)CC3)nn2)C(C)(C)C)cc1 [UB-180789] | > 1000
Cc1ncsc1-c1ccc(CNC(=O)[C@@H]2C[C@@H](O)CN2C(=O)[C@@H](NC(=O)COCCNCCn2cc(COCCOCCOCCNC(=O)[C@]3(Cc4cccc(Nc5nccs5)n4)CC[C@@H](Oc4cccc(Cl)c4F)CC3)nn2)C(C)(C)C)cc1 [UB-180791] | > 1000
O=C1CCC(N2Cc3c(NC(=O)COCCNCCOCCOCCOCCNC(=O)c4ccc(Nc5ncc6c(n5)-c5ccc(Cl)cc5C(c5c(F)cccc5F)=NC6)cc4)cccc3C2=O)C(=O)N1 (stereo not shown) [UB-180792] | 100 to 1000
O=C1CCC(N2Cc3c(NC(=O)COCCNCCOCCOCCOCCNC(=O)[C@]4(Cc5cccc(Nc6nccs6)n5)CC[C@@H](Oc5cccc(Cl)c5F)CC4)cccc3C2=O)C(=O)N1 (stereo partly shown) [UB-180793] | 100 to 1000
O=C1CCC(N2Cc3c(NC(=O)CCOCCOCCOCCNCCNC(=O)c4ccc(Nc5ncc6c(n5)-c5ccc(Cl)cc5C(c5c(F)cccc5F)=NC6)cc4)cccc3C2=O)C(=O)N1 (stereo not shown) [UB-180796] | > 1000
O=C1CCC(N2Cc3c(NC(=O)CCOCCOCCOCCNCCNC(=O)[C@]4(Cc5cccc(Nc6nccs6)n5)CC[C@@H](Oc5cccc(Cl)c5F)CC4)cccc3C2=O)C(=O)N1 (stereo partly shown) [UB-180797] | > 1000
O=C1CCC(N2Cc3c(NC(=O)COCCOCCOCCNCCOCCNC(=O)c4ccc(Nc5ncc6c(n5)-c5ccc(Cl)cc5C(c5c(F)cccc5F)=NC6)cc4)cccc3C2=O)C(=O)N1 (stereo not shown) [UB-180798] | 100 to 1000
O=C1CCC(N2Cc3c(NC(=O)CCNCCOCCOCCOCCOCCNC(=O)c4ccc(Nc5ncc6c(n5)-c5ccc(Cl)cc5C(c5c(F)cccc5F)=NC6)cc4)cccc3C2=O)C(=O)N1 (stereo not shown) [UB-180807] | 100 to 1000
O=C1CCC(N2Cc3c(NC(=O)CNCCOCCOCCNC(=O)c4ccc(Nc5ncc6c(n5)-c5ccc(Cl)cc5C(c5c(F)cccc5F)=NC6)cc4)cccc3C2=O)C(=O)N1 (stereo not shown) [UB-180809] | 100 to 1000
CC[C@@H]1C(=O)N(C)c2cnc(Nc3ccc(C(=O)NCCOCCOCCOCCOCCNCCC(=O)Nc4cccc5c4CN(C4CCC(=O)NC4=O)C5=O)cc3OC)nc2N1C1CCCC1 (stereo partly shown) [UB-180813] | 10 to 100
CC[C@@H]1C(=O)N(C)c2cnc(Nc3ccc(C(=O)NCCNCCOCCOCCOCC(=O)Nc4cccc5c4CN(C4CCC(=O)NC4=O)C5=O)cc3OC)nc2N1C1CCCC1 (stereo partly shown) [UB-180815] | 10 to 100
CC[C@@H]1C(=O)N(C)c2cnc(Nc3ccc(C(=O)NCCNCCOCCOCCOCCC(=O)Nc4cccc5c4CN(C4CCC(=O)NC4=O)C5=O)cc3OC)nc2N1C1CCCC1 (stereo partly shown) [UB-180820] | 10 to 100
O=C1CCC(N2Cc3c(NC(=O)CCNCCn4cc(COCCNC(=O)c5ccc(Nc6ncc7c(n6)-c6ccc(Cl)cc6C(c6c(F)cccc6F)=NC7)cc5)nn4)cccc3C2=O)C(=O)N1 (stereo not shown) [UB-180822] | > 1000
CC[C@@H]1C(=O)N(C)c2cnc(Nc3ccc(C(=O)NC4CCN(CCOCCN(C=O)CC(=O)Nc5cccc6c5CN(C5CCC(=O)NC5=O)C6=O)CC4)cc3OC)nc2N1C1CCCC1 (stereo partly shown) [UB-180834] | 10 to 100
CC[C@@H]1C(=O)N(C)c2cnc(Nc3ccc(C(=O)NC4CCN(CCOCCN(CC(=O)Nc5cccc6c5CN(C5CCC(=O)NC5=O)C6=O)C(N)=O)CC4)cc3OC)nc2N1C1CCCC1 (stereo partly shown) [UB-180840] | 10 to 100

More lines, now with the values ahead:

EC50 [nM] | Compound
100 to 1000 | O=C1CCC(N2Cc3c(NC(=O)COCCCCNC(=O)c4ccc(Nc5ncc6c(n5)-c5ccc(Cl)cc5C(c5c(F)cccc5F)=NC6)cc4)cccc3C2=O)C(=O)N1 (stereo not shown) [UB-180503]
10 to 100 | O=C1CCC(N2Cc3c(NC(=O)CCOCCOCCNC(=O)c4ccc(Nc5ncc6c(n5)-c5ccc(Cl)cc5C(c5c(F)cccc5F)=NC6)cc4)cccc3C2=O)C(=O)N1 (stereo not shown) [UB-180504]
10 to 100 | O=C1CCC(N2Cc3c(NC(=O)COCCOCCOCCNC(=O)c4ccc(Nc5ncc6c(n5)-c5ccc(Cl)cc5C(c5c(F)cccc5F)=NC6)cc4)cccc3C2=O)C(=O)N1 (stereo not shown) [UB-180520]
> 1000 | Cc1ncsc1-c1ccc(CNC(=O)[C@@H]2C[C@@H](O)CN2C(=O)[C@H](NC(=O)CCCNCCn2cc(COCCOCCNC(=O)c3ccc(Nc4ncc5c(n4)-c4ccc(Cl)cc4C(c4c(F)cccc4F)=NC5)cc3)nn2)C(C)(C)C)cc1 [UB-180787]
> 1000 | Cc1ncsc1-c1ccc(CNC(=O)[C@@H]2C[C@@H](O)CN2C(=O)[C@@H](NC(=O)COCCNCCn2cc(COCCOCCNC(=O)c3ccc(Nc4ncc5c(n4)-c4ccc(Cl)cc4C(c4c(F)cccc4F)=NC5)cc3)nn2)C(C)(C)C)cc1 [UB-180788]
> 1000 | Cc1ncsc1-c1ccc(CNC(=O)[C@@H]2C[C@@H](O)CN2C(=O)[C@@H](NC(=O)CCCNCCn2cc(COCCOCCOCCNC(=O)[C@]3(Cc4cccc(Nc5nccs5)n4)CC[C@@H](Oc4cccc(Cl)c4F)CC3)nn2)C(C)(C)C)cc1 [UB-180790]
> 1000 | O=C1CCC(N2Cc3c(NC(=O)COCCOCCOCCNCCNC(=O)c4ccc(Nc5ncc6c(n5)-c5ccc(Cl)cc5C(c5c(F)cccc5F)=NC6)cc4)cccc3C2=O)C(=O)N1 (stereo not shown) [UB-180794]
100 to 1000 | O=C1CCC(N2Cc3c(NC(=O)COCCOCCOCCNCCNC(=O)[C@]4(Cc5cccc(Nc6nccs6)n5)CC[C@@H](Oc5cccc(Cl)c5F)CC4)cccc3C2=O)C(=O)N1 (stereo partly shown) [UB-180795]
100 to 1000 | O=C1CCC(N2Cc3c(NC(=O)COCCOCCOCCNCCOCCNC(=O)[C@]4(Cc5cccc(Nc6nccs6)n5)CC[C@@H](Oc5cccc(Cl)c5F)CC4)cccc3C2=O)C(=O)N1 (stereo partly shown) [UB-180799]
100 to 1000 | O=C1CCC(N2Cc3c(NC(=O)CCOCCOCCOCCNCCOCCNC(=O)c4ccc(Nc5ncc6c(n5)-c5ccc(Cl)cc5C(c5c(F)cccc5F)=NC6)cc4)cccc3C2=O)C(=O)N1 (stereo not shown) [UB-180803]
100 to 1000 | O=C1CCC(N2Cc3c(NC(=O)CCNCCOCCOCCOCCOCCNC(=O)[C@]4(Cc5cccc(Nc6nccs6)n5)CC[C@@H](Oc5cccc(Cl)c5F)CC4)cccc3C2=O)C(=O)N1 (stereo partly shown) [UB-180808]
100 to 1000 | O=C1CCC(N2Cc3c(NC(=O)CNCCOCCN4CCN(CCNC(=O)c5ccc(Nc6ncc7c(n6)-c6ccc(Cl)cc6C(c6c(F)cccc6F)=NC7)cc5)CC4)cccc3C2=O)C(=O)N1 (stereo not shown) [UB-180811]
10 to 100 | CC[C@@H]1C(=O)N(C)c2cnc(Nc3ccc(C(=O)NCCOCCOCCNCC(=O)Nc4cccc5c4CN(C4CCC(=O)NC4=O)C5=O)cc3OC)nc2N1C1CCCC1 (stereo partly shown) [UB-180814]
> 1000 | O=C1CCC(N2Cc3c(NC(=O)CCNCCOC4CCN(CCOCCNC(=O)c5ccc(Nc6ncc7c(n6)-c6ccc(Cl)cc6C(c6c(F)cccc6F)=NC7)cc5)CC4)cccc3C2=O)C(=O)N1 (stereo not shown) [UB-180821]
10 to 100 | CC[C@@H]1C(=O)N(C)c2cnc(Nc3ccc(C(=O)NC4CCN(CCOCCN(CC(=O)Nc5cccc6c5CN(C5CCC(=O)NC5=O)C6=O)C(=O)OC)CC4)cc3OC)nc2N1C1CCCC1 (stereo partly shown) [UB-180833]
10 to 100 | CC[C@@H]1C(=O)N(C)c2cnc(Nc3ccc(C(=O)NC4CCN(CCOCCN(CC(=O)Nc5cccc6c5CN(C5CCC(=O)NC5=O)C6=O)C(C)=O)CC4)cc3OC)nc2N1C1CCCC1 (stereo partly shown) [UB-180835]
100 to 1000 | CN(CCOCCOCCOCCNC(=O)[C@]1(Cc2cccc(Nc3nccs3)n2)CC[C@@H](Oc2cccc(Cl)c2F)CC1)CC(=O)Nc1cccc2c1CN(C1CCC(=O)NC1=O)C2=O (stereo partly shown) [UB-180836]

same assay, conditions: MV4;11 cells

Compound | EC50 [nM]
O=C1CCC(N2Cc3c(NC(=O)CNCCOCCN4CCN(CCNC(=O)[C@]5(Cc6cccc(Nc7nccs7)n6)CC[C@@H](Oc6cccc(Cl)c6F)CC5)CC4)cccc3C2=O)C(=O)N1 (stereo partly shown) [UB-180812] | 100 to 1000
